Here are results for three molecules from patent US5763433A, “Pharmaceutical compositions containing 3-beta-hydroxylated 6,7-substituted steroid derivatives, and use thereof” (Conservatoire National des Arts et Metiers, priority 1992, dated 1998).

One data set deals with anti-lysozyme IgG. Description: Immunoenzymatic measurement of anti-lysozyme IgG in serum of mice immunized against lysozyme. It counts as in vivo, C57BL/6 mice. The settings on record: for Optical densities +/- SD, anti-lysozyme IgG, 1/180 serial dilution: serum 1/180; for Optical densities +/- SD, anti-lysozyme IgG, 1/180 serial dilution / Optical densities +/- SD, anti-lysozyme IgG, 1/540 serial dilution / Optical densities +/- SD, anti-lysozyme IgG, first serial dilution: s.c., mean of 5 mice; for Optical densities +/- SD, anti-lysozyme IgG, 1/180 serial dilution / Optical densities +/- SD, anti-lysozyme IgG, 1/540 serial dilution: doses and timing as E1; for Optical densities +/- SD, anti-lysozyme IgG, 1/540 serial dilution: serum 1/540; for Optical densities +/- SD, anti-lysozyme IgG, first serial dilution: serum dilution not given, PREG 0,5 g/kg, DHEA 1,0 g/kg, ADIOL 125 mg/kg 1 hour before lysozyme, 7-hydroxy-PREG and 7-hydroxy-DHEA 6,25 mg/kg, 7β-hydroxy-DHEA 50,0 mg/kg, 7- and 7β-hydroxy-ADIOL 25,0 mg/kg with lysozyme; for Effect on serum concentrations of anti-lysozyme IgG (in words): steroid administered s.c. at least one hour prior to the injection of lysozyme; for Effect on serum anti-lysozyme IgG (in words): steroid administered s.c. simultaneously with lysozyme. As to the method: The immunity effector effect was tested by subcutaneous injection concomitantly with that of an antigen and the 7-alpha- or 7-beta-hydroxylated derivative into C57BL/6 mice according to a standard immunization protocol (Methods in Enzymology (1980), vol. 70).
The effect of the compound as cellular immunity effector is measured by the quantity of circulating IgG directed against the antigen 21 days after the injection and after a booster injection 14 days layer.
Thirty five groups of five 6-weeks old C57BL/6 mice are given a subcutaneous injection of 200 ug of hen egg white lysozyme on days one and fourteen of the immunization protocol. Solutions of DHEA (Sigma D-4500) in dimethyl sulfoxide (DMSO) are injected in the same manner at variable times before the first injection of lysozyme. Amounts ranging from 0.25 and 2 g/kg are used. Ten other groups of 5 mice are given a subcutaneous injection of 6.25 to 50 mg/kg of 7-alpha-hydroxy-DHEA or 7-beta-hydroxy-DHEA dissolved in DMSO at the same time as the first lysozyme injection. Two groups receive only DMSO with lysozyme (controls). The blanks correspond to one group of 5 mice and are not given an injection.
Three weeks after the first injections the animals, then aged 9 weeks, are decapitated. The blood of each animal is collected and the presence of anti-lysozyme G immunoglobulins (IgG) is measured in serial dilutions of the sera by an immunoenzymatic titration using goat anti-mouse (Fc) IgG immunoglobulin labelled with peroxidase.
A group of 5 mice is given the subcutaneous injection of 125 mg/kg of 5-androstene-3-beta, 17-beta-diol (ADIOL) one hour prior to the first injection of lysozyme, and two groups of 5 mice are treated with 25 mg/kg of 7-alpha-hydroxy-ADIOL or 7-beta-hydroxy-ADIOL at the time of the first lysozyme injection.
DHEA or PREG or ADIOL is injected subcutaneously 1 hour before the first lysozyme injection. The 7-hydroxylated derivatives are administered simultaneously with the lysozyme injection. The immunoenzymatic measurement of the anti-lysozyme IgGs in the serial dilutions of the sera of each animal makes use of goat anti-mouse (Fc) IgG immunoglobulin, labelled with peroxidase in 96-well plates treated with lysozyme. The mean value of the optical densities measured in each group of 5 mice is calculated as well as the standard deviation (SD).

In the next data set the test system is antiviral response. Conditions: 20 mg/kg to 320 mg/kg s.c. or 0.4% by weight of the diet; cited from earlier work.
Data set [1] deals with human viruses Edwards CVB4 or HSV2. The settings on record: s.c., of the order of 1 g/kg 4 hours prior to viral infection; also oral 0.4% in the diet for 16 weeks; cited from earlier work.
The next data set deals with AIDS. The settings on record: 400 to 2500 mg/day; cited from earlier work.
The conditions of data set [2]: cited from earlier work.
In data set [3] the test system is cytosolic or nuclear receptors specific for 7-alpha-hydroxy-DHEA. Description: Search for cytosolic or nuclear receptors specific for 7-alpha-hydroxy-DHEA (studies not reported). It counts as binding. Conditions: studies not reported here.
In data set [4] the target is T1, nuclear binding of tritiated dexamethazone (glucocorticoid receptors) (Mus musculus, UniProt P06537).
T1 construct: The liver, brain, spleen and thymus are excised and the cells of each organ are recovered; from tissue; host or cells: isolated cells of liver, brain, spleen and thymus of metyrapone-treated C57BL/6 mice
T1 sequence (P06537 1-792): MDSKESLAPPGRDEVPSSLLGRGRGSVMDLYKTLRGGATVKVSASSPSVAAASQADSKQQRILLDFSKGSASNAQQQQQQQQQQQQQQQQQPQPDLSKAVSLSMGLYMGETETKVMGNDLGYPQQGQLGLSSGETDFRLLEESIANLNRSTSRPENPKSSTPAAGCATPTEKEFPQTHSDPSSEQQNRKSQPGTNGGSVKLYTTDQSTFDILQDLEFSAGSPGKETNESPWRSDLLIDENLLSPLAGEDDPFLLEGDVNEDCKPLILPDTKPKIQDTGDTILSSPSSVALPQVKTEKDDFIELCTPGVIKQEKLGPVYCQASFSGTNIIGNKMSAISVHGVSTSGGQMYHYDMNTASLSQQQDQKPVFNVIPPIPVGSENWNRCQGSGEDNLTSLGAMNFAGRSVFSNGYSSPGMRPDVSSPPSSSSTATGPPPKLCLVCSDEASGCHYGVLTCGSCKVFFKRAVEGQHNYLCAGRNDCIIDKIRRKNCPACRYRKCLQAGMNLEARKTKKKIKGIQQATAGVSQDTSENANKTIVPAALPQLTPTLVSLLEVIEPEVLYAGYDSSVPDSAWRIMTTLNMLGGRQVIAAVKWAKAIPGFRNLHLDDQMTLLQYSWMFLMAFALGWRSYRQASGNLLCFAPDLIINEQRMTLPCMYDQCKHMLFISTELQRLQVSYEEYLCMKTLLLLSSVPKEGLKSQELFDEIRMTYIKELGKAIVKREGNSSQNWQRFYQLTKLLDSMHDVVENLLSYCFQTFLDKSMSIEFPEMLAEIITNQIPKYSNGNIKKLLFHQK
Description: Displacement of the nuclear binding of tritiated dexamethazone in isolated liver, brain, thymus and spleen cells. The arrangement: species or system C57BL/6 mouse. Here is the method:
The isolated hepatocytes are incubated for 1 hour at room temperature with increasing concentrations (2-80 nM) of ^3 H-dexamethazone (DEX*). […] The hepatocyte nuclei are then isolated and purified and the radioactivity corresponding to the DEX* still bound is measured and expressed in cpm/10 ug of DNA. The area under the curve DEX* corresponds to zero displacement of the radioactivity. The area under the curve DEX*/DEX which corresponds to the displacement of radioactivity by the same molecule is taken arbitrarily as 100. The areas under the curve obtained with the other steroids makes it possible to calculate by interpolation between the areas zero and 100 their displacement coefficients for the nuclear binding of DEX*.
The mice are anesthetized with ether and bled, then perfused intracardially with physiological serum containing collagenase B (0.03 g/100 ml) for 10 minutes. […] The quantities of cells obtained are estimated on the base of the measurement of the DNA contained in the preparations.
The nuclei are recovered and their radioactive content measured as described by the authors cited above.
The area under the curve of tritiated dexamethazone alone is measured and taken as zero. […] The displacement coefficients found for each of the other steroids are calculated by interpolation on this scale, each result being the mean of a triplicate determination.

Regarding `C[C@]12CC[C@H]3[C@@H](CC=C4C[C@@H](O)CC[C@@]43C)[C@@H]1CC[C@@H]2O` [ADIOL, 5-androstene-3-beta, 17-beta-diol, reference compound], in the data set on anti-lysozyme IgG, the “Optical densities +/- SD, anti-lysozyme IgG, 1/180 serial dilution” value is 0,37 ± 0,06; the “Optical densities +/- SD, anti-lysozyme IgG, 1/540 serial dilution” value is recorded as 0,22 ± 0,03; the “Optical densities +/- SD, anti-lysozyme IgG, first serial dilution” value was 0,26 ± 0,09; the “Effect on serum concentrations of anti-lysozyme IgG (in words)” value is “increase the serum concentrations of anti-lysozyme IgG”. Besides, the Antiviral response result in the data set on antiviral response is recorded as “enhanced antiviral response”.

For `C[C@]12CC[C@H](O)CC1=CC[C@@H]1[C@@H]2CC[C@]2(C)C(=O)CC[C@@H]12` [DHEA, 3-beta-hydroxy-5-androsten-17-one, reference compound], the “Survival of infected mice” value in data set [1] is recorded as “enables the survival of mice infected by the human viruses Edwards CVB4 or HSV2 to be increased”. In addition, in the data set with AIDS, the “Effect on patients suffering from AIDS” value was “positive effect”. For the same molecule, in the data set on anti-lysozyme IgG, the “Optical densities +/- SD, anti-lysozyme IgG, 1/180 serial dilution” value is reported as 0,26 ± 0,04; the “Optical densities +/- SD, anti-lysozyme IgG, 1/540 serial dilution” value was 0,14 ± 0,02; the “Optical densities +/- SD, anti-lysozyme IgG, first serial dilution” value is given as 0,40 ± 0,06; the “Effect on serum concentrations of anti-lysozyme IgG (in words)” value is reported as “increase the serum concentrations of anti-lysozyme IgG”. The “Solubility in aqueous solutions” value in data set [2] is given as “low solubility”.

Take `C[C@]12CC[C@H](O)CC1=C[C@@H](O)[C@@H]1[C@@H]2CC[C@]2(C)C(=O)CC[C@@H]12` [7-hydroxy-DHEA, 3-beta, 7-alpha-dihydroxy-androst-5-en-17-one]: the “Existence of specific cytosolic or nuclear receptors” value in data set [3] is “do not exist”. Besides, in the data set with anti-lysozyme IgG, the “Optical densities +/- SD, anti-lysozyme IgG, 1/180 serial dilution” value is given as 0,74 ± 0,21; the “Optical densities +/- SD, anti-lysozyme IgG, 1/540 serial dilution” value was 0,43 ± 0,12; the “Optical densities +/- SD, anti-lysozyme IgG, first serial dilution” value is reported as 1,21 ± 0,37. In addition, in the data set with anti-lysozyme IgG (listed as 7-alpha-OH-DHEA), the “Effect on serum anti-lysozyme IgG (in words)” value is “particularly marked effect of the low doses”. Also, in the data set on anti-lysozyme IgG (listed as 7-alpha-hydroxy-DHEA), the “Effect on serum anti-lysozyme IgG (in words)” value is reported as “much more active than its 7-beta epimer”. Further, the “Displacement of tritiated dexamethazone from nuclear binding / anti-glucocorticoid action (in words)” value in data set [4] (100-fold excess of steroid) was “more effective that the 7-beta epimer”. The “Displacement coefficient for nuclear binding of tritiated dexamethazone, Brain” value in data set [4] (brain cells, 100-fold excess of steroid, no competitor = zero, unlabelled dexamethazone = 100, mean of triplicate) worked out at 49. Further, the “Displacement coefficient for nuclear binding of tritiated dexamethazone, Liver” value in data set [4] (liver cells, 100-fold excess of steroid over 2-80 nM 3H-dexamethazone, no competitor = zero, unlabelled dexamethazone = 100, mean of triplicate, 60 min) stood at 95. Further, in data set [4] (spleen cells, 100-fold excess of steroid, no competitor = zero, unlabelled dexamethazone = 100, mean of triplicate), the “Displacement coefficient for nuclear binding of tritiated dexamethazone, Spleen” value amounted to 91. In addition, the “Displacement coefficient for nuclear binding of tritiated dexamethazone, Thymus” value in data set [4] (thymus cells, 100-fold excess of steroid, no competitor = zero, unlabelled dexamethazone = 100, mean of triplicate) was 85.
